According to patent US6407288B1, “Naphthylsalicylanilides as antimicrobial and antiinflammatory agents” (The Research Foundation of State University of New York, priority 2000, dated 2002):
Values after ≈ are worked out from the molar mass of the structure shown.

What was measured:
[1] = system: B. fragilis; experiment: MIC microdilution, gram negative; format: cell-based, Bacteroides fraglis; settings: for MIC: Bacteroides fragilis, Table 3, Gram Negative; for MIC B. fragilis: Table 3 printed a second time, Gram Negative
In short: (§1)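 Modified NCCLS broth microdilution; anaerobes grown 48-72 hrs in half-strength BHI with yeast extract, hemin and menadione, aerobes in full-strength BHI, inoculum ~1×10^8 CFU/mL (10 μL/assay). Drugs from DMSO stock, final 50 to 0.05 μg/assay, duplicate, 24 to 48 hrs (anaerobic: 5% CO2, 10% H2, N2); MIC = lowest concentration without visible growth.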

[2] = system: Str. pn. R; experiment: Mean Streptococcus MIC; format: cell-based; settings: Streptococcus; Table 5, mean; strain resistant to penicillin and erythromycin
In short: (§2)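 Modified NCCLS broth microdilution in duplicate: 10 μL inoculum from cultures diluted to about 1×10^8 CFU/mL, drug 50 to 0.05 μg/assay diluted from DMSO stock. Full-strength BHI for aerobes, supplemented half-strength BHI under 5% CO2/10% H2/N2 for anaerobes, 24–48 h; MIC as lowest concentration without visible growth.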

[3] = system: Str. pn; experiment: Mean Streptococcus MIC; format: cell-based; settings: Streptococcus; Table 5, mean
In short: as §2

[4] = system: Aa Y4; experiment: MIC microdilution, gram negative; format: cell-based, Actinobacillus actinomycetemcomitans; settings: for MIC: Aggregatibacter actinomycetemcomitans, Y4, Table 3, Gram Negative; for MIC Aa Y4: Table 3 printed a second time, Gram Negative
In short: as §1

[5] = system: S. aureus R2; experiment: Staphylococcus MIC; format: cell-based; settings: second Table 5 (Example 5), strain 00-42-1066
Protocol: The MIC's for the compounds were determined by a modified microdilution tube dilution method described in “Methods for Dilution Antimicrobial Susceptibility Tests for Bacteria that Grow Aerobically” (National Committee for Clinical Laboratory Standards Approved Standards, 1997, NCCLS document M7-A4). In general the modifications were made because of the unique growth requirements for the fastidious oral organisms and for those bacteria that require anaerobic conditions. Reference is also made to “Methods for Antimicrobial Susceptibility of Anaerobic Bacteria” (National Committee for Clinical Laboratory Standards Approved Standards, 1997, NCCLS document M11-A4).
Briefly, the methods were as follows. Cultures were grown for 18-24hrs (aerobic bacteria) or 48-72 hrs (anaerobic bacteria) in the appropriate medium. For aerobic bacteria full strength brain heart infusion medium (BHI, Difco) was used. For anaerobic bacteria, half strength BHI (18.5 g/L) was supplemented by adding yeast extract (10 g/L), hemin (0.29 mL of a stock solution containing 0.1 g/200 mL dH2O) and menadione (15 mL of a stock solution containing 0.15 mL in 30 mL 95% EtOH) was used. Initial cultures were diluted to approximately 1×10^8 CFU/mL for use as an inoculum. Each assay received 10 μL of the inoculum. The drugs were prepared from a stock solution contained in dimethyl sulfoxide (DMSO) and diluted into the culture medium. Final concentrations of the drugs ranged from 50 to 0.05 μg/assay. The tests were run in duplicate and were incubated appropriately with regard to oxygen requirements for 24 to 48 hrs as required. Anaerobic incubation was an atmosphere of 5% CO2, 10% H2, with the balance N2. The lowest concentration of an antimicrobial agent at which no visible growth is noted was referred to as the MIC.
The S.aureus R2 species is a strain 00-42-1066 from the Children's Hospital in Buffalo. It was isolated from a wound in an individual. It was […]. The sensitivity of this strain was tested agaisnt several known antibiotics.

[6] = system: S. sanguis; experiment: MIC microdilution, gram positive; format: cell-based, Streptococcus sanguis; settings: Streptococcus; Table 1, Gram Positive
In short: (§3)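 Anaerobic strains required supplemented half-strength BHI and incubation in 5% CO2, 10% H2, balance N2; aerobic strains used full-strength BHI. Inoculum approx. 1×10^8 CFU/mL; compounds from DMSO, 50 to 0.05 μg/assay; visual MIC.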

[7] = system: A. viscosus; experiment: MIC microdilution, gram positive; format: cell-based, Actinomyces viscosus; settings: Actinomyces viscosus; Table 2, Gram Positive
In short: as §3

[8] = system: P. ging 381; experiment: MIC microdilution, gram negative; format: cell-based, Porphyromonas gingivalis; settings: for MIC: Porphyromonas gingivalis, 381, Table 3, Gram Negative; for MIC P. ging 381: Table 3 printed a second time, Gram Negative
In short: as §1

[9] = system: Pg 53977; experiment: MIC microdilution, gram negative; format: cell-based, Porphyromonas gingivalis; settings: for MIC: Porphyromonas gingivalis, 53977, Table 3, Gram Negative; for MIC Pg 53977: Table 3 printed a second time, Gram Negative
In short: as §1

For `O=C(c1ccc(-c2ccccc2)cc1)c1ccc(O)c(C(=O)Nc2cccc(C(F)(F)F)c2)c1` [BPAmF, reference compound], the MIC [1] was 50 µg/mL (≈ 108 µM), the “MIC B. fragilis” value [1] was 50 micrograms/ml and the MIC [2] was over 50 µg/mL. For the same compound, the MIC [3] was 0.84 µg/mL (≈ 1.82 µM), the MIC [4] was over 50 µg/mL and the “MIC Aa Y4” value [4] was “NE (NE indicates that the drug was not effective at a concentration >50 micrograms/ml)”. It also gave an MIC [5] of over 50 µg/mL, an MIC [6] of over 50 µg/mL and an MIC [7] of over 50 µg/mL. For the same compound, the MIC [8] was under 0.4 µg/mL, the “MIC P. ging 381” value [8] was under 0.4 micrograms/ml and the MIC [9] was under 0.4 µg/mL. For the same compound, the “MIC Pg 53977” value [9] was under 0.4 micrograms/ml.

With `CCCCc1ccc(C(=O)c2ccc(O)c(C(=O)Nc3cccc(C(F)(F)F)c3)c2)cc1` [BBAmF, reference compound] the MIC [1] was over 50 µg/mL, the “MIC B. fragilis” value [1] was “NE (NE indicates that the drug was not effective at a concentration >50 micrograms/ml)” and the MIC [2] was over 50 µg/mL. For the same compound, the MIC [3] was 0.45 µg/mL (≈ 1.02 µM), the MIC [4] was over 50 µg/mL and the “MIC Aa Y4” value [4] was “NE (NE indicates that the drug was not effective at a concentration >50 micrograms/ml)”. The MIC [5] was over 50 µg/mL, the MIC [6] was over 50 µg/mL and the MIC [7] was over 50 µg/mL. The MIC [8] was under 0.4 µg/mL, the “MIC P. ging 381” value [8] was under 0.4 micrograms/ml and the MIC [9] was under 0.4 µg/mL. The “MIC Pg 53977” value [9] was under 0.4 micrograms/ml.

With `N#Cc1cccc(NC(=O)c2cc(C(=O)c3ccc(-c4ccccc4)cc3)ccc2O)c1` [BPAmC, reference compound] the MIC [1] was 50 µg/mL (≈ 119 µM), the “MIC B. fragilis” value [1] was 50 micrograms/ml and the MIC [2] was over 50 µg/mL. The MIC [3] was 0.58 µg/mL (≈ 1.39 µM), the MIC [4] was over 50 µg/mL and the “MIC Aa Y4” value [4] was “NE (NE indicates that the drug was not effective at a concentration >50 micrograms/ml)”. For the same compound, the MIC [5] was over 50 µg/mL, the MIC [6] was over 50 µg/mL and the MIC [7] was over 50 µg/mL. For the same compound, the MIC [8] was under 0.4 µg/mL, the “MIC P. ging 381” value [8] was under 0.4 micrograms/ml and the MIC [9] was under 0.4 µg/mL. For the same compound, the “MIC Pg 53977” value [9] was under 0.4 micrograms/ml.

For `N#Cc1cccc(NC(=O)c2cc(C(=O)c3cccc4ccccc34)ccc2O)c1` [NA1mC], the MIC [1] was over 50 µg/mL, the “MIC B. fragilis” value [1] was “NE (NE indicates that the drug was not effective at a concentration >50 micrograms/ml)” and the MIC [2] was 12.5 µg/mL (≈ 31.9 µM). The MIC [3] was 1.1 µg/mL (≈ 2.8 µM), the MIC [4] was 6.3 µg/mL (≈ 16.1 µM) and the “MIC Aa Y4” value [4] was 6.3 micrograms/ml. It also gave an MIC [5] of 6.3 µg/mL (≈ 16.1 µM), an MIC [6] of 6.3 µg/mL (≈ 16.1 µM) and an MIC [7] of 3.2 µg/mL (≈ 8.15 µM). For the same compound, the MIC [8] was 0.4 µg/mL (≈ 1.02 µM), the “MIC P. ging 381” value [8] was 0.4 micrograms/ml and the MIC [9] was 0.8 µg/mL (≈ 2.04 µM). For the same compound, the “MIC Pg 53977” value [9] was 0.8 micrograms/ml.

For `O=C(Nc1cccc(C(F)(F)F)c1)c1cc(C(=O)c2cccc3ccccc23)ccc1O` [NA1mF], the MIC [1] was 3.1 µg/mL (≈ 7.12 µM), the “MIC B. fragilis” value [1] was 3.1 micrograms/ml and the MIC [2] was 0.78 µg/mL (≈ 1.79 µM). The MIC [3] was 0.45 µg/mL (≈ 1.03 µM), the MIC [4] was 3.1 µg/mL (≈ 7.12 µM) and the “MIC Aa Y4” value [4] was 3.1 micrograms/ml. For the same compound, the MIC [5] was 1.6 µg/mL (≈ 3.67 µM), the MIC [6] was 0.8 µg/mL (≈ 1.84 µM) and the MIC [7] was under 0.1 µg/mL. For the same compound, the MIC [8] was under 0.1 µg/mL, the “MIC P. ging 381” value [8] was under 0.1 micrograms/ml and the MIC [9] was under 0.1 µg/mL. For the same compound, the “MIC Pg 53977” value [9] was under 0.1 micrograms/ml.
